In patent US12162820B2 (TAIWANJ PHARMACEUTICALS CO., LTD., priority 2019, dated 2024) one finds inhibition data, which are given here for five molecules.

The structures appear in SMILES notation.

As usually defined, the inhibition is the percentage by which the read-out fell short of the control.

Type in all cases: biochemical
The target in one experiment is T1, HDAC1 (Homo sapiens, UniProt Q13547).
T1 construct: purchased Enzo Life Sciences
The experiment can be described thus: HDAC Inhibition Screening Assay (FLUOR DE LYS Fluorimetric Drug Discovery Kit), HDAC1. The settings on record: for inhibition at 2 µM: 2 μM compound; for inhibition at 10 µM: 10 μM compound; for inhibition at 50 µM: 50 μM compound. The method, then:
(§1) The HDAC1/HDAC2/HDAC3 in vitro activities are detected by Enzo Life Sciences' HDAC1/HDAC2/HDAC3 Fluorimetric Drug Discovery Kit. The assay is based on the FLUOR DE LYS® Substrate and FLUOR DE LYS® Developer combination. The assay procedure has two steps. First, the FLUOR DE LYS® Substrate, which comprises an acetylated lysine side chain, is incubated with HDAC1/HDAC2/HDAC3, respectively. Deacetylation of the substrate sensitizes the substrate so that, in the second step, treatment with the FLUOR DE LYS® Developer produces a fluorophore. The signals of the test compounds (Compounds 1˜83; at concentrations of 2 μM, 10 μM and 50 μM) in 96-well plates are detected at 360 nm or 485 nm excitation and 460 nm or 530 nm emission with a Molecular Devices SpectraMax i3 Imaging Cytometer. The HDAC1/HDAC2/HDAC3 activities are expressed in percentage of basal control minus baseline control.

The target in the next experiment is T2, HDAC2 (Homo sapiens, UniProt Q92769).
T2 construct: purchased Enzo Life Sciences
T2 sequence (Q92769 whole entry): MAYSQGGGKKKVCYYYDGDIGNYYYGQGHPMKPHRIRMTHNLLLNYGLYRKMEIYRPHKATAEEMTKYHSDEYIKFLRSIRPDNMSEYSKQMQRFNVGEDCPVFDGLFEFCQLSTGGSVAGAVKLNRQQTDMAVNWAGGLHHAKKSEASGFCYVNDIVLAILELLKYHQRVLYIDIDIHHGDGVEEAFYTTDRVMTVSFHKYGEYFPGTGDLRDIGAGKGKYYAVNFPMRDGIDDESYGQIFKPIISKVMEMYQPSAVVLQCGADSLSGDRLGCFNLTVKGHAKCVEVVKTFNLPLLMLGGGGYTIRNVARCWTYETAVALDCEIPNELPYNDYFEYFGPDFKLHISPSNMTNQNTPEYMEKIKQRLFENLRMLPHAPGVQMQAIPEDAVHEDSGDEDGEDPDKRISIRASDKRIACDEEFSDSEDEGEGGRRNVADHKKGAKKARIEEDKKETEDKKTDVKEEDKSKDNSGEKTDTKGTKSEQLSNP
The experiment can be described thus: HDAC Inhibition Screening Assay (FLUOR DE LYS Fluorimetric Drug Discovery Kit), HDAC2. To be noted: for inhibition at 2 µM: 2 μM compound; for inhibition at 10 µM: 10 μM compound; for inhibition at 50 µM: 50 μM compound. The procedure: as §1

In a further experiment the target is T3, HDAC3 (Homo sapiens, UniProt O15379).
T3 construct: purchased Enzo Life Sciences
T3 sequence (O15379 whole entry): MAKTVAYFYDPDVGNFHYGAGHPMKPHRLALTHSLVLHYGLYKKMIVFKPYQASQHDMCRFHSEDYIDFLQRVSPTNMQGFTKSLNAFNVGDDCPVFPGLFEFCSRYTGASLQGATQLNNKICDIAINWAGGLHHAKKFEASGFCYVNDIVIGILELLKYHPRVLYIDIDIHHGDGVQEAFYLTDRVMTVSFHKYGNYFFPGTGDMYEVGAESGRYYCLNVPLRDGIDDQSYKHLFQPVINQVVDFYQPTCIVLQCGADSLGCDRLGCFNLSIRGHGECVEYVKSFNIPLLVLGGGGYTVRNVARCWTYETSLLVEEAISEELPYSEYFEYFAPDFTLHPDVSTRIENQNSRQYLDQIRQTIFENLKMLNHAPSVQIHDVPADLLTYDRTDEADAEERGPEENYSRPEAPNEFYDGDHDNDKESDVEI
T3 sequence (O75376 395-489 partner limits assumed): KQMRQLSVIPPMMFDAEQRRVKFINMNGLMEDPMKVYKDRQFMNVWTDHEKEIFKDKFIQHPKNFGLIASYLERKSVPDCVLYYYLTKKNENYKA
The experiment can be described thus: HDAC Inhibition Screening Assay (FLUOR DE LYS Fluorimetric Drug Discovery Kit), HDAC3. The settings on record: for inhibition at 2 µM: 2 μM compound; for inhibition at 10 µM: 10 μM compound; for inhibition at 50 µM: 50 μM compound. The procedure:
as §1

Another experiment concerns the target T4, ATX (autotaxin) (Homo sapiens, UniProt Q13822).
T4 construct: purchased Cayman 10803
The experiment in a line: Autotaxin Inhibition Screening Assay (choline release from LPC, LPC-CR). To be noted: for inhibition at 4 µM: 4 μM compound; for inhibition at 20 µM: 20 μM compound; for inhibition at 50 µM: 50 μM compound. The procedure:
ATX (autotaxin) activity was measured by choline release from LPC in presence or absence of test compounds (Compounds 1˜83; at concentrations of 4 μM, 20 μM and 50 μM). Twenty (20) ng ATX (10803, Cayman, MI, USA) was incubated with 100 μM 14:0 LPC (855575P, Avanti, AL, USA) in a final volume of 100 μL buffer containing 50 mM Tris pH 8.0, 0.01% Triton X-100, 50 mM CaCl2, 1 unit/ml choline oxidase, 2 unit/ml horseradish peroxidase (HRP), 2 mM homovanilic acid (HVA). The relative amount of released choline was measured by HVA fluorescence in a 96-well plate. Fluorescent intensity was determined at λex/λem=320/450 nm every 60 sec for 90 min with a SpectraMax i3 (Molecular Devices, CA, USA). Data analysis was performed using GraphPad Prism (GraphPad, La Jolla CA, USA). Inhibition %=[1−(SlopeTA−SlopeBlank)/(SlopeVehicle−SlopeBlank)]×100% HDAC Inhibition Screening Assay

T1 sequence (Q13547 whole entry): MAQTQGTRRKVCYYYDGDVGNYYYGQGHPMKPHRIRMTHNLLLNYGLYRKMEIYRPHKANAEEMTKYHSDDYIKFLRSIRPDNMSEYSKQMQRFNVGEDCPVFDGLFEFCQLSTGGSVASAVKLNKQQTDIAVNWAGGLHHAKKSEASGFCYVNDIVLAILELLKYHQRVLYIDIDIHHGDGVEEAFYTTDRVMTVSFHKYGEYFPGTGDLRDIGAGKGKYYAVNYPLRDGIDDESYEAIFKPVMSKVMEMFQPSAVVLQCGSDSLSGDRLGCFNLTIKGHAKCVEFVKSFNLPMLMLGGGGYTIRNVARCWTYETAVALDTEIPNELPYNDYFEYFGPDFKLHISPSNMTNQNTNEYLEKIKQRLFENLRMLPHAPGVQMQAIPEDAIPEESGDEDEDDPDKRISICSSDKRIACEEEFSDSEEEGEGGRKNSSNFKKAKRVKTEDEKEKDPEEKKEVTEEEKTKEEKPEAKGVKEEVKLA

Take `O=C(/C=C/c1ccc2c(c1)CCC2NCCc1cc(Cl)cc(Cl)c1)NO` (stereo not drawn) [Compound 55, (E)-3-(1-((3,5-dichlorophenethyl)amino)-2,3-dihydro-1H-inden-5-yl)-N-hydroxyacrylamide]: on HDAC1, the inhibition at 2 µM was more than 80%, the inhibition at 10 µM was more than 80% and the inhibition at 50 µM is more than 80%. Besides, on HDAC2, the inhibition at 2 µM was more than 80%, the inhibition at 10 µM was more than 80% and the inhibition at 50 µM is more than 80%. For the same molecule, on HDAC3, the inhibition at 2 µM was more than 80%, the inhibition at 10 µM was more than 80% and the inhibition at 50 µM is more than 80%. On ATX (autotaxin), this molecule gave an inhibition at 4 µM of less than 50%, an inhibition at 20 µM of less than 50% and an inhibition at 50 µM of less than 50%.

With `O=C(CCCCC(=O)N1CCN(C(=O)c2ccc3c(c2)CC/C(=C\c2cc(C(F)(F)F)cc(C(F)(F)F)c2)C3=O)CC1)NO` [Compound 83, (E)-6-(4-(6-(3,5-bis(trifluoromethyl)benzylidene)-5-oxo-5,6,7,8-tetrahydro-naphthalene-2-carbonyl)piperazin-1-yl)-N-hydroxy-6-oxohexanamide], at HDAC1, the inhibition at 2 µM was less than 50%, the inhibition at 10 µM was less than 50% and the inhibition at 50 µM lay in the range of 50 to 80%. Besides, at HDAC2, the inhibition at 2 µM was less than 50%, the inhibition at 10 µM is less than 50% and the inhibition at 50 µM lay in the range of 50 to 80%. Further, at HDAC3, the inhibition at 2 µM was less than 50%, the inhibition at 10 µM was less than 50% and the inhibition at 50 µM fell in the range of 50 to 80%. Further, on ATX (autotaxin), the inhibition at 4 µM is more than 80%, the inhibition at 20 µM was more than 80% and the inhibition at 50 µM is more than 80%.

Consider `COc1ccc(CCNC2CCc3cc(/C=C/C(=O)NO)ccc32)cc1` (stereo not drawn) [Compound 52, (E)-N-hydroxy-3-(1-((4-methoxyphenethyl)amino)-2,3-dihydro-1H-inden-5-yl)acrylamide], for which, at HDAC1, the inhibition at 2 µM was more than 80%, the inhibition at 10 µM was more than 80% and the inhibition at 50 µM is more than 80%. On HDAC2, the inhibition at 2 µM is more than 80%, the inhibition at 10 µM was more than 80% and the inhibition at 50 µM was more than 80%. In addition, on HDAC3, the inhibition at 2 µM is more than 80%, the inhibition at 10 µM was more than 80% and the inhibition at 50 µM is more than 80%. Further, at ATX (autotaxin), the inhibition at 4 µM is less than 50%, the inhibition at 20 µM was less than 50% and the inhibition at 50 µM was less than 50%.

`Nc1cc(F)ccc1NC(=O)/C=C/c1ccc(COc2ccc3c(c2)CCCC3=O)cc1` [Compound 69, (E)-N-(2-amino-4-fluorophenyl)-3-(4-(((5-oxo-5,6,7,8-tetra-hydronaphthalen-2-yl)oxy)methyl)phenyl)acrylamide]: on HDAC1, the inhibition at 2 µM was less than 50%, the inhibition at 10 µM is less than 50% and the inhibition at 50 µM is less than 50%. On HDAC2, the inhibition at 2 µM was less than 50%, the inhibition at 10 µM is less than 50% and the inhibition at 50 µM fell in the range of 50 to 80%. In addition, on HDAC3, the inhibition at 2 µM was less than 50%, the inhibition at 10 µM was less than 50% and the inhibition at 50 µM was less than 50%. On ATX (autotaxin), this molecule had an inhibition at 4 µM of less than 50%, an inhibition at 20 µM of less than 50% and an inhibition at 50 µM of less than 50%.

In the case of `O=C(CCCCCCC(=O)Nc1ccc2c(c1)CCC(Cc1cc(C(F)(F)F)cc(C(F)(F)F)c1)C2=O)NO` (stereo not drawn) [Compound 10, N1-(6-(3,5-bis(trifluoromethyl)benzyl)-5-oxo-5,6,7,8-tetrahydronaphthalen-2-yl)-N8-hydroxyoctanediamide], on HDAC1, the inhibition at 2 µM is less than 50%, the inhibition at 10 µM fell in the range of 50 to 80% and the inhibition at 50 µM is more than 80%. Besides, at HDAC2, the inhibition at 2 µM is less than 50%, the inhibition at 10 µM is more than 80% and the inhibition at 50 µM is more than 80%. Also, at HDAC3, the inhibition at 2 µM is less than 50%, the inhibition at 10 µM lay in the range of 50 to 80% and the inhibition at 50 µM was more than 80%. At ATX (autotaxin), this molecule showed an inhibition at 4 µM of more than 80%, an inhibition at 20 µM of more than 80% and an inhibition at 50 µM of more than 80%.
